Marks after values point to notes of the source that are not given here. Each block holds one compound with its values, some of them ahead of it.
Columns and labels:
[1] = system: OAT3; details: cited from earlier work
[2] = Safety and tolerability, all three studies; type: in vivo, human
[3] = system: OATP1B1; details: cited from earlier work
[4] = Edoxaban-erythromycin drug interaction study, plasma pharmacokinetics
[5] = cited from earlier work
[6] = Edoxaban-ketoconazole drug interaction study, plasma pharmacokinetics
[7] = system: OCT2; details: cited from earlier work
[8] = cited from earlier work; remark: listed apart in the source
[9] = system: P‐gp; details: Caco‐2 cell monolayers; transport strongly hindered by P‐gp inhibitors; cited from earlier work
[10] = system: OAT1; details: cited from earlier work
[11] = Edoxaban-cyclosporine drug interaction study, plasma pharmacokinetics
[12] = system: CYP3A4; details: cited from earlier work
[13] = edoxaban + erythromycin vs edoxaban alone
[14] = erythromycin study, edoxaban 60 mg alone, mean ± SD, n = 32
[15] = edoxaban + ketoconazole vs alone, reduced
[16] = edoxaban + cyclosporine vs edoxaban alone
[17] = edoxaban + cyclosporine vs edoxaban alone, based on geometric LSM ratios

decrease in apparent volume of distribution [4, 13]: 63%
decrease in total apparent clearance [4, 13]: about 47%
increase in total exposure (AUC) [4, 13]: 85%
AUC (extrapolated to infinity) [4, 14]: 1740 ± 443.7 ^b ng h ml^–1
t1/2 [4, 14]: 10.24 ± 3.71 ^b h
Cmax ([4]; human, in vivo, po, 60 mg): 259 ± 100 ng/mL
change in clearance [6, 15]: approximately 46%
change in volume of distribution [6, 15]: approximately 46%
increase in total exposure (AUC) ([6]; edoxaban + ketoconazole vs edoxaban alone): 87%
half-life ([6]; human, in vivo): ~11.5 h
AUC(0-inf) ([6]; human, in vivo, 60 mg): 1650 ± 412 ng·h/mL
half-life ([6]; human, in vivo, 60 mg): 11.9 ± 4.11 h
Cmax ([6]; human, in vivo, po, 60 mg): 245 ± 86.9 ng/mL
increase in peak exposure [11, 16]: approximately 1.7 fold
increase in total exposure [11, 16]: approximately 1.7 fold
increase in peak exposure (Cmax) [11, 17]: 74%
increase in total exposure (AUC) [11, 17]: 73%
AUC(0-inf) ([11]; human, in vivo, 60 mg): 1830 ± 363 ng·h/mL
Tmax ([11]; human, in vivo, 60 mg): 1.5 h
half-life ([11]; human, in vivo, 60 mg): 14.5 ± 5.34 h
SMILES: CN1CCc2nc(C(=O)N[C@@H]3C[C@@H](C(=O)N(C)C)CC[C@@H]3NC(=O)C(=O)Nc3ccc(Cl)cn3)sc2C1 [Edoxaban]
substrate of OAT3 [1]: not a substrate
serious adverse events [2]: No serious adverse events
tolerability ([2]; alone or in combination with ketoconazole, erythromycin, or cyclosporine): well tolerated
substrate of OATP1B1 [3]: not a substrate
metabolism via CYP3A4, share of total clearance [5]: < 4%
oral (absolute) bioavailability [5]: 62%
substrate of OCT2 [7]: not a substrate
increase in total exposure with quinidine ([8]; intravenous dosing of edoxaban): about 35%
increase in exposure with quinidine ([8]; oral edoxaban): about 68%
transport via P‐gp [9]: transported via P‐gp
substrate of OAT1 [10]: not a substrate

SMILES: CC(=O)N1CCN(c2ccc(OCC3COC(Cn4ccnc4)(c4ccc(Cl)cc4Cl)O3)cc2)CC1 (centres unmarked) [ketoconazole]
degree of CYP3A4 inhibitory activity [12]: strong
